The text below walks through data of patent US20120237535A1, “Therapeutic Compositions For The Treatment of HPV-Induced Diseases” (priority 2009, published 2012).

Data set [1] concerns EL4 cells pulsed with DTc peptide. Put plainly: In vivo induction of CTL by immunization, chromium release assay. The conditions noted are these: 2 nmol i.v. in PBS, no adjuvant; spleen cells day 7, cultured 5 days; compared with peptide DTc/E7(49-57). Also noted: species or system C57BL/6 mice. How it is done:
FIG. 4: In vivo induction of CTL by immunization with EDA-HPV-E7 protein or with the DTc/E7(49-57) peptide in PBS. (A) Mice were immunized i.v with 2 nmol EDA-HPV-E7 or with the DTc/E7(49-57) peptide. Seven days alter immunization, the mice were sacrificed and spleen cells were cultured in the presence or absence of DTc peptide for 5 days. CTL activity was measured using a conventional chromium release assay using EL4 cells radio labeled and pulsed with DTc peptide as target cells in the splenocytes cultures obtained from the mice immunized with the protein EDA-HPV-E7 (closed circles) ◯ with the peptide DTc/E7 (49-57) (open circles) (On the graphic, the absolute values are shown, said values are calculated by subtracting the value of lysis obtained without peptide from the value obtained in the presence of peptide). […]
It was assayed if mice immunized with the EDA-HPVE7 fusion protein developed HPVE7-specific T cell responses. […] CTL activity was measured using a conventional chromium release assay using radio labeled EL4 cells pulsed with DTc peptide or without peptide as target cells. (FIG. 4A) (On the graphic, the absolute values are shown, said values are calculated subtracting the value of lysis obtained without peptide from the value obtained in the presence of peptide). […]

Data set [2] has as its system bone marrow-derived dendritic cells. Put plainly: IL-12 production by bone marrow-derived dendritic cells (ELISA). The class given is cell-based, mouse. The note with it: 500 nM; ELISA of culture supernatant. How it is done: (§1) FIG. 3: EDA-HPV-E7 fusion protein induces the production of IL-12 by bone marrow-derived dendritic cells or the production of TNF-α by the human monocyte cell line THP-1. (A) Bone marrow-derived dendritic cells were incubated for […] with EDA-HPVE7 (500 nM), with peptide E7(49-57) (500 nM), with LPS (1 μg/ml) (positive control) or with culture medium (negative control). 24 hours later, the culture supernatant was harvested and the IL-12 released to the supernatant was measured by ELISA. (B) THP-1 cells were incubated for 15 hours with EDA-HPVE7 (500 nM), with peptide E7(49-57) (500 nM), with LPS (1 μg/ml) or with culture medium (negative control). After culture, the supernatants were harvested and the released TNF-α was measured by ELISA.
(§2) Bone marrow (BM)-derived dendritic cells were generated from mouse femur marrow cell cultures. […] After 24 h of culture, supernatants were harvested and IL-12 (p70) and TNF-α were measured by ELISA (BD-Pharmingen), according to manufacturer's instructions. Expression of DC maturation markers was measured by flow cytometry. […] After this initial incubation, cells were stained with the primary antibodies at 4° C. for 15 min, washed and acquired on FACSscan cytometer (BD Biosciences, San Diego, Calif.) and analyzed using Cell Quest software (BD Biosciences). […]

For data set [3], the system named is human monocyte cell line THP-1. Kind of data set: In vitro monocyte activation, TNF-α released by THP-1 (ELISA). Type of data set: cell-based. The note with it: 500 nM, 15 hours. The procedure: as §1
THP-1 cells were plated at 1×10^6 cells/well and cultured overnight at 37° C. and 5% CO2 in complete medium for stabilization of the culture. Different concentrations of the indicated antigens were added to the cultures and after 15 hour of incubation, culture supernatants were harvested. The concentration of human TNF-α released to the medium by the THP-1 cell line was quantified using a commercial ELISA assay (BD Pharmingen), according to manufacturer's instructions.
Therefore, it was assayed if the recombinant protein EDA-HPV-E7 was also able to induce maturation of BMDC in vitro.
On the technique in general: In an ELISA, binding on a coated surface is turned into a signal by an enzyme label.

For data set [4], the system named is bone marrow-derived dendritic cells. Put plainly: Maturation of bone marrow-derived dendritic cells, maturation markers by flow cytometry. Type of data set: cell-based, mouse. The note with it: BMDC incubated with 500 nM. How it is done:
FIG. 2: Activation of bone marrow-derived dendritic cell maturation by the EDAHPV-E7 fusion protein. Bone marrow-derived dendritic cells were incubated for 48 hours with EDA-HPVE7 (500 nM), with peptide E7(49-57) (500 nM), with LPS (1 μg/ml) (positive control) or with culture medium (Control Neg). Cells were then harvested and analyzed by flow cytometry for the expression of the H-2b molecule or the maturation markers CD54 and CD86 (RFU: Relative fluorescence units).
as §2, with “cultures. After lysing erythrocytes with ACK lysing buffer, bone marrow cell were washed and subsequently depleted of lymphocytes and granulocytes by incubation with a mixture of antibodies against CD4 (GK1; ATCC, Manassas, Va.), CD8 (53.6.72; ATCC), Ly-6G/Gr1 (BD-Pharmingen; San Diego, Calif.) and CD45R/B220 (BD-Pharmingen) followed by rabbit complement.” for “cultures.”

Data set [5] relates to HPVE7-specific T cell responses. Put plainly: IFN-γ producing cells by ELISPOT in splenocytes of immunized mice. Type of data set: in vivo, C57BL/6 mice. The note with it: 2 nmol i.v. in PBS, compared with E7(49-57) peptide.
Data set [6] relates to TC-1 tumor cells expressing HPV16-E6 and HPV16-E7. Put plainly: Therapeutic efficacy against established TC-1 tumors (approximately 8 mm, treated day 25). The class given is in vivo, C57BL/6 mice. The note with it: TC-1 s.c., treated i.v. day 25, tumors about 8 mm; for tumor growth: mean of two perpendicular diameters. The procedure: FIG. 6: Therapeutic efficacy of the EDA-HPVE7 fusion protein combined with poly I:C (pI:C). Mice were injected with 5×10^5 TC-1 cells and 25 days later, when tumor mean diameters were approximately 8 mm, they were treated intravenously with different vaccine combinations based on EDA (A). Tumor size, presented as the average of two perpendicular diameters (millimeters), was measured at regular intervals. The number of tumor-free mice on day 100 relative to the total number of animals included and the percent surviving on day 100 are indicated for each set of experiments. The p-value (*p<0.05) determined by the likelihood ratio test comparing tumor growth in the EDA-E7/pI:C treated group with tumor growth in the p:IC-treated group is indicated. The mice were sacrificed when the tumor diameters reached 20 mm or when necessary due to the sanitary status of the animals. (B) Survival curves from the immunized mice with the indicated immunogens are indicated (p values are indicated ((*p<0.05)). Pooled data of two independent experiments are shown.
THP1 cells (American Type Culture Collection ATCC, Manassas, Va.) were used for in vitro assays of monocyte activation by EDA derived fusion proteins. TC-1, tumor cells expressing HPV16-E6 and HPV16-E7 proteins derived from primary mouse lung epithelial cells, were obtained from the American Type Culture Collection (LGC Promochem, Molsheim, France). Cells were maintained in RPMI 1640 with GlutaMAX supplemented with 10% heat-inactivated fetal calf serum, 100 units/ml penicillin, 100 μg/ml streptomycin, 0.4 mg/ml geneticin and 5×10-5 mol/l 2-mercaptoethanol (Life Technologies, Cergy-Pontoise, France). 5×10^5 TC-1 cells were injected into the shaved back (left side) of C57BL/6 mice in 200 μL PBS. Tumor size, presented as the average of two perpendicular diameters (millimeters), was measured at regular intervals.
Monolix software (http://www.monolix.org/) was used for analysis of tumor growth data with non-linear mixed effect models. Mean diameters of tumors over time were fitted using the model described in equation 1.1 and treatments were compared using the likelihood ratio test.
Kaplan-Meier plots were used to analyze survival. Prism software (GraphPad Software, Inc. San Diego, USA) was used to determine the significance of differences in survival curves with a log rank test. The results of the in vivo killing analysis were analyzed by ANOVA followed by Dunnett's Multiple Comparison test. p values less than 0.05 were considered to be statistically significant.
To better evaluate the potency of EDA-HPVE7 as an antigen delivery system and as a vaccine, the therapeutic efficacy of this fusion protein was compared with that of the E7(49-57) peptide, both supplemented with TLR ligand pI:C. […]

As for “EDA-HPVE7: recombinant fusion protein: amino acids 1-29 of HPV-E7 at N-terminus of fibronectin EDA, amino acids 43-98 at C-terminus, six histidine residues”, the “CTL activity against target cells pulsed with the cytotoxic T cell epitope E7” value in data set [1] is on record as “higher levels of CTL activity”. For the same substance, the “production of IL-12 cytokine by BMDC” value in data set [2] is “able to strongly stimulate the production”. The “production of TNF-α cytokine by THP-1” value in data set [3] is “able to induce the production”. Further, in data set [4], the “expression of the maturation marker CD54” value is “able to upregulate expression” and the “expression of the maturation marker IAb” value is recorded as “able to upregulate expression”. Further, the “number of IFN-γ producing spots specific for E7(49-57)” value in data set [5] was “higher number of IFN-γ producing spots”. In addition, the “number of IFN-γ producing spots specific for TC1 cells” value in data set [5] (irradiated TC1 cells) was “higher number of IFN-γ producing spots”. Besides, in data set [6], the “tumor eradication (in words)” value is on record as “unable to eradicate the tumors” and the tumor growth result was “a delay in tumor growth was observed”.

In the case of “Polyinosinic-polycytidylic acid [pI:C, reference compound]”, the survival result in data set [6] (Kaplan-Meier, log rank test) is recorded as “slight, statistically non-significant prolongation of survival”. Moreover, the tumor growth result in data set [6] was “followed the same tumor growth kinetics”.
